# From ChEMBL document CHEMBL3525960, “Role of catechol-O-methyltransferase in the disposition of luteolin in rats” (Drug Metab Dispos, 2011)
# What was measured:
# [1] = Drug excretion in Sprague-Dawley rat urine at 6.5 mg/kg, iv after 24 hrs co-treated with COMT inhibitor entacapone; type: ADME, organism-based; set-up: dose 6.5 mg/kg, route intravenous; details: read-out: Drug excretion
# [2] = Half life in Sprague-Dawley rat at 6.5 mg/kg, iv; type: ADME, organism-based; set-up: dose 6.5 mg/kg, route intravenous; details: in vivo
# [3] = Mean residence time (0 to infinity) in Sprague-Dawley rat at 6.5 mg/kg, iv co-treated with COMT inhibitor entacapone; type: ADME, organism-based; set-up: dose 6.5 mg/kg, route intravenous; details: in vivo
# [4] = AUC (0 to infinity) in Sprague-Dawley rat at 6.5 mg/kg, iv co-treated with COMT inhibitor entacapone; type: ADME, organism-based; set-up: time infinity, dose 6.5 mg/kg, route intravenous; details: plasma
# [5] = Drug metabolism in Sprague-Dawley rat erythrocytes homogenate assessed as 4'-O-methylated luteolin at 20 uM after 20 to 60 mins; type: ADME, cell-based; details: erythrocyte
# Kidney [6] = assay: Drug metabolism in Sprague-Dawley rat kidney homogenate assessed as 4'-O-methylated luteolin at 20 uM after 20 to 60 mins in presence of COMT inhibitor entacapone; type: ADME, tissue-based; details: tissue homogenate
# Kidney [7] = assay: Drug metabolism in Sprague-Dawley rat kidney homogenate assessed as 4'-O-methylated luteolin at 20 uM after 20 to 60 mins; type: ADME, tissue-based; details: tissue homogenate
# Lung [8] = assay: Drug metabolism in Sprague-Dawley rat lung homogenate assessed as 4'-O-methylated luteolin at 20 uM after 20 to 60 mins; type: ADME, tissue-based; details: tissue homogenate
# [9] = Mean residence time (0 to t) in Sprague-Dawley rat at 6.5 mg/kg, iv; type: ADME, organism-based; set-up: dose 6.5 mg/kg, route intravenous; details: in vivo
# [10] = AUC (0 to t) in Sprague-Dawley rat at 6.5 mg/kg, iv co-treated with COMT inhibitor entacapone; type: ADME, organism-based; set-up: dose 6.5 mg/kg, route intravenous; details: plasma
# [11] = Volume of distribution in Sprague-Dawley rat at 6.5 mg/kg, iv co-treated with COMT inhibitor entacapone; type: ADME, organism-based; set-up: dose 6.5 mg/kg, route intravenous; details: in vivo
# Kidney [12] = assay: Drug metabolism in Sprague-Dawley rat kidney homogenate assessed as 3'-O-methylated luteolin at 20 uM after 20 to 60 mins in presence of COMT inhibitor entacapone; type: ADME, tissue-based; details: tissue homogenate
# Liver [13] = assay: Drug metabolism in Sprague-Dawley rat liver homogenate assessed as 4'-O-methylated luteolin at 20 uM after 20 to 60 mins; type: ADME, tissue-based; details: tissue homogenate
# [14] = Clearance in Sprague-Dawley rat at 6.5 mg/kg, iv; type: ADME, organism-based; set-up: dose 6.5 mg/kg, route intravenous; details: in vivo
# Liver [15] = assay: Drug metabolism in Sprague-Dawley rat liver homogenate assessed as 3'-O-methylated luteolin at 20 uM after 20 to 60 mins in presence of COMT inhibitor entacapone; type: ADME, tissue-based; details: tissue homogenate
# Liver [16] = assay: Drug metabolism in Sprague-Dawley rat liver homogenate assessed as 4'-O-methylated luteolin at 20 uM after 20 to 60 mins in presence of COMT inhibitor entacapone; type: ADME, tissue-based; details: tissue homogenate
# [17] = AUC (0 to t) in Sprague-Dawley rat at 6.5 mg/kg, iv; type: ADME, organism-based; set-up: dose 6.5 mg/kg, route intravenous; details: plasma
# Small intestine [18] = assay: Drug metabolism in Sprague-Dawley rat small intestine homogenate assessed as 4'-O-methylated luteolin at 20 uM after 20 to 60 mins; type: ADME, tissue-based; details: tissue homogenate
# [19] = Drug excretion in Sprague-Dawley rat urine at 6.5 mg/kg, iv after 24 hrs; type: ADME, organism-based; set-up: dose 6.5 mg/kg, route intravenous; details: read-out: Drug excretion
# Lung [20] = assay: Drug metabolism in Sprague-Dawley rat lung homogenate assessed as 4'-O-methylated luteolin at 20 uM after 20 to 60 mins in presence of COMT inhibitor entacapone; type: ADME, tissue-based; details: tissue homogenate
# [21] = Drug metabolism in Sprague-Dawley rat erythrocytes homogenate assessed as 3'-O-methylated luteolin at 20 uM after 20 to 60 mins in presence of COMT inhibitor entacapone; type: ADME, cell-based; details: erythrocyte
# [22] = Drug metabolism in Sprague-Dawley rat erythrocytes homogenate assessed as 3'-O-methylated luteolin at 20 uM after 20 to 60 mins; type: ADME, cell-based; details: erythrocyte
# Small intestine [23] = assay: Drug metabolism in Sprague-Dawley rat small intestine homogenate assessed as 3'-O-methylated luteolin at 20 uM after 20 to 60 mins in presence of COMT inhibitor entacapone; type: ADME, tissue-based; details: tissue homogenate
# Small intestine [24] = assay: Drug metabolism in Sprague-Dawley rat small intestine homogenate assessed as 4'-O-methylated luteolin at 20 uM after 20 to 60 mins in presence of COMT inhibitor entacapone; type: ADME, tissue-based; details: tissue homogenate
# Lung [25] = assay: Drug metabolism in Sprague-Dawley rat lung homogenate assessed as 3'-O-methylated luteolin at 20 uM after 20 to 60 mins in presence of COMT inhibitor entacapone; type: ADME, tissue-based; details: tissue homogenate
# Kidney [26] = assay: Drug metabolism in Sprague-Dawley rat kidney homogenate assessed as 3'-O-methylated luteolin at 20 uM after 20 to 60 mins; type: ADME, tissue-based; details: tissue homogenate
# [27] = Apparent permeability in human Caco2 cells; type: ADME, cell-based; details: caco-2
# [28] = Volume of distribution in Sprague-Dawley rat at 6.5 mg/kg, iv; type: ADME, organism-based; set-up: dose 6.5 mg/kg, route intravenous; details: in vivo
# Liver [29] = assay: Drug metabolism in Sprague-Dawley rat liver homogenate assessed as 3'-O-methylated luteolin at 20 uM after 20 to 60 mins; type: ADME, tissue-based; details: tissue homogenate
# Small intestine [30] = assay: Drug metabolism in Sprague-Dawley rat small intestine homogenate assessed as 3'-O-methylated luteolin at 20 uM after 20 to 60 mins; type: ADME, tissue-based; details: tissue homogenate
# [31] = Mean residence time (0 to t) in Sprague-Dawley rat at 6.5 mg/kg, iv co-treated with COMT inhibitor entacapone; type: ADME, organism-based; set-up: dose 6.5 mg/kg, route intravenous; details: in vivo
# [32] = AUC (0 to infinity) in Sprague-Dawley rat at 6.5 mg/kg, iv; type: ADME, organism-based; set-up: time infinity, dose 6.5 mg/kg, route intravenous; details: plasma
# Lung [33] = assay: Drug metabolism in Sprague-Dawley rat lung homogenate assessed as 3'-O-methylated luteolin at 20 uM after 20 to 60 mins; type: ADME, tissue-based; details: tissue homogenate
# [34] = Drug metabolism in Sprague-Dawley rat erythrocytes homogenate assessed as 4'-O-methylated luteolin at 20 uM after 20 to 60 mins in presence of COMT inhibitor entacapone; type: ADME, cell-based; details: erythrocyte
# [35] = Drug recovery in Sprague-Dawley rat urine assessed as retention time at 6.5 mg/kg, iv by reverse-phase HPLC method; type: ADME, organism-based; set-up: dose 6.5 mg/kg, route intravenous; details: in vivo
# [36] = Drug absorption in human Caco2 cells; type: ADME, cell-based; details: caco-2
# [37] = Mean residence time (0 to infinity) in Sprague-Dawley rat at 6.5 mg/kg, iv; type: ADME, organism-based; set-up: dose 6.5 mg/kg, route intravenous; details: in vivo
# [38] = Clearance in Sprague-Dawley rat at 6.5 mg/kg, iv co-treated with COMT inhibitor entacapone; type: ADME, organism-based; set-up: dose 6.5 mg/kg, route intravenous; details: in vivo
# [39] = Half life in Sprague-Dawley rat at 6.5 mg/kg, iv co-treated with COMT inhibitor entacapone; type: ADME, organism-based; set-up: dose 6.5 mg/kg, route intravenous; details: in vivo
smiles,measurement,setting,value
O=c1cc(-c2ccc(O)c(O)c2)oc2cc(O)cc(O)c12 [LUTEOLIN],dose excreted at 24 h,[1],7.32%
same,half-life,[2],3.2 h
same,MRT inf,[3],2.68 h
same,AUC(0-inf),[4],12500 ng·h/mL
same,Drug metabolism,[5],metabolite_detected
same,Drug metabolism,Kidney [6],metabolite_not_detected
same,Drug metabolism,Kidney [7],metabolite_detected
same,Drug metabolism,Lung [8],metabolite_detected
same,MRT last,[9],1.41 h
same,AUC(0-t),[10],11400 ng·h/mL
same,Vd,[11],2.57 L/kg
same,Drug metabolism,Kidney [12],metabolite_not_detected
same,Drug metabolism,Liver [13],metabolite_detected
same,clearance,[14],13.4 mL/min/kg
same,Drug metabolism,Liver [15],metabolite_not_detected
same,Drug metabolism,Liver [16],metabolite_not_detected
same,AUC(0-t),[17],7600 ng·h/mL
same,Drug metabolism,Small intestine [18],metabolite_detected
same,dose excreted at 24 h,[19],5.12%
same,Drug metabolism,Lung [20],metabolite_not_detected
same,Drug metabolism,[21],metabolite_not_detected
same,Drug metabolism,[22],metabolite_detected
same,Drug metabolism,Small intestine [23],metabolite_not_detected
same,Drug metabolism,Small intestine [24],metabolite_not_detected
same,Drug metabolism,Lung [25],metabolite_not_detected
same,Drug metabolism,Kidney [26],metabolite_detected
same,Papp,[27],5.8 ×10⁻⁶ cm/s
same,Vd,[28],3.74 L/kg
same,Drug metabolism,Liver [29],metabolite_detected
same,Drug metabolism,Small intestine [30],metabolite_detected
same,MRT last,[31],1.65 h
same,AUC(0-inf),[32],8180 ng·h/mL
same,Drug metabolism,Lung [33],metabolite_detected
same,Drug metabolism,[34],metabolite_not_detected
same,Retention_time,[35],15.46 min
same,Drug absorption,[36],20%
same,MRT inf,[37],2.32 h
same,clearance,[38],8.95 mL/min/kg
same,half-life,[39],3.31 h
